ChEMBL document CHEMBL1157384, “Apratoxin D, a potent cytotoxic cyclodepsipeptide from papua new guinea collections of the marine cyanobacteria Lyngbya majuscula and Lyngbya sordida” (J Nat Prod, 2008)

System: NCI-H460
Test: Cytotoxicity against human H460 cells after 48 hrs by MTT assay
Type: functional, cell-based
Conditions: NCI-H460, 48 h

In the case of `CC[C@H](C)[C@H]1C(=O)N2CCC[C@H]2C(=O)O[C@H]([C@@H](C)CC(C)(C)C)C[C@@H](C)C[C@H](O)[C@H](C)C2=N[C@@H](/C=C(\C)C(=O)N[C@@H](Cc3ccc(OC)cc3)C(=O)N(C)[C@@H](C)C(=O)N1C)CS2` [APRATOXIN D], the IC50 is reported as 2.6 nM.
